In ChEMBL document CHEMBL5584283, “Evaluation of Antibacterial Functionalized Dihydropyrimidine Photoaffinity Probes Toward Mechanism of Action Studies” (ACS Med Chem Lett, 2024):
In brackets after ≈: the same amount, converted by molar mass.

Experiments:
Staphylococcus aureus [1] = experiment: Antibacterial activity against Staphylococcus aureus ATCC 12600 assessed as reduction in bacterial growth measured after 18 hrs by two-fold serial dilution method; assay type: functional
Staphylococcus aureus [2] = experiment: Antibacterial activity against Staphylococcus aureus ATCC 12600 assessed as partial growth inhibition at high concentration measured after 18 hrs by two-fold serial dilution method relative to control; assay type: functional
Staphylococcus aureus [3] = experiment: Antibacterial activity against Staphylococcus aureus ATCC 43300 assessed as reduction in bacterial growth measured after 18 hrs by two-fold serial dilution method; assay type: functional
Staphylococcus aureus [4] = experiment: Antibacterial activity against Staphylococcus aureus ATCC 43300 assessed as partial growth inhibition at high concentration measured after 18 hrs by two-fold serial dilution method relative to control; assay type: functional
Staphylococcus aureus [5] = experiment: Antibacterial activity against Staphylococcus aureus ATCC 33591 assessed as reduction in bacterial growth measured after 18 hrs by two-fold serial dilution method; assay type: functional
Staphylococcus aureus [6] = experiment: Antibacterial activity against Staphylococcus aureus ATCC 33591 assessed as partial growth inhibition at high concentration measured after 18 hrs by two-fold serial dilution method relative to control; assay type: functional
Erythrocyte = experiment: Hemolytic activity in sheep RBC assessed as hemolysis incubated for 1 hr by absorbance based analysis; assay type: toxicity, cell-based, Ovis aries

Molecule	MIC (Staphylococcus aureus [1]) [µg/mL]	growth inhibition (GI) (Staphylococcus aureus [2]) [%]	MIC (Staphylococcus aureus [3]) [µg/mL]	growth inhibition (GI) (Staphylococcus aureus [4]) [%]	MIC (Staphylococcus aureus [5]) [µg/mL]	growth inhibition (GI) (Staphylococcus aureus [6]) [%]	HC20 (Erythrocyte) [µg/mL]
CCOC(=O)C1=C(CC)NC(N)=NC1c1ccc(-c2ccccc2)cc1 (configuration not stated)	4 (≈ 11.4 µM)	>95	4 (≈ 11.4 µM)	>95			
CCOC(=O)C1=C(c2ccccc2)NC(N)=NC1c1ccc(C)cc1C (configuration not stated)	32 (≈ 91.6 µM)	>95	32 (≈ 91.6 µM)	>95	32 (≈ 91.6 µM)	>95	
CCOC(=O)C1=C(CC)NC(N)=NC1c1ccc(CC(C)C)cc1 (configuration not stated)		>95		>95			> 64
CCOC(=O)C1=C(c2cccc(C(F)(F)F)c2)NC(N)=NC1c1cc(Cl)cc(Cl)c1 (configuration not stated)							> 64
CCOC(=O)C1=C(c2cccc(F)c2)NC(N)=NC1c1cc(Cl)cc(Cl)c1 (configuration not stated)							> 64
CCOC(=O)C1=C(c2ccccc2)NC(N)=NC1c1cccc(F)c1 (configuration not stated)	64 (≈ 189 µM)	>95	64 (≈ 189 µM)	>95	64 (≈ 189 µM)	>95	
CCOC(=O)C1=C(c2ccccc2)NC(N)=NC1c1ccc(-c2ccccc2)cc1 (configuration not stated)							> 64
CCOC(=O)C1=C(c2ccccc2)NC(N)=NC1c1c(C)cccc1C (configuration not stated)	32 (≈ 91.6 µM)	>95	32 (≈ 91.6 µM)	>95			
CCOC(=O)C1=C(c2cccc(F)c2)NC(N)=NC1c1ccc(CC(C)C)cc1 (configuration not stated)							> 64
CCOC(=O)C1=C(c2ccccc2)NC(N)=NC1c1cccc(Cl)c1 (configuration not stated)							> 64
CCOC(=O)C1=C(c2ccccc2)NC(N)=NC1c1ccc(CC(C)C)cc1 (configuration not stated)						>95	> 64
CCOC(=O)C1=C(c2ccccc2)NC(N)=NC1c1ccc(C)c(C)c1 (configuration not stated)		>95				>95	
CCOC(=O)C1=C(c2ccccc2)NC(N)=NC1c1ccc(OC)cc1 (configuration not stated)	64 (≈ 182 µM)	>95					> 64
CCOC(=O)C1=C(c2ccccc2)NC(N)=NC1c1cccc([N+](=O)[O-])c1 (configuration not stated)				>95		>95	
CCOC(=O)C1=C(c2ccccc2)NC(N)=NC1c1ccccc1OC (configuration not stated)							> 64
CCOC(=O)C1=C(c2cccc(C(F)(F)F)c2)NC(N)=NC1c1ccc(CC(C)C)cc1 (configuration not stated)							64
CCOC(=O)C1=C(c2cccc(C)c2)NC(N)=NC1c1cc(Cl)cc(Cl)c1 (configuration not stated)							> 64
CCOC(=O)C1=C(c2ccccc2)NC(N)=NC1c1ccc(F)cc1 (configuration not stated)	64 (≈ 189 µM)	>95	64 (≈ 189 µM)	>95	64 (≈ 189 µM)	>95	
CCOC(=O)C1=C(c2ccccc2)NC(N)=NC1c1ccc(N(C)C)cc1 (configuration not stated)	64 (≈ 176 µM)	>95	64 (≈ 176 µM)	>95	64 (≈ 176 µM)	>95	
CCOC(=O)C1=C(c2ccccc2)NC(N)=NC1c1ccc(C(C)C)cc1 (configuration not stated)		>95		>95		>95	> 64
COc1cc(Cc2cnc(N)nc2N)cc(OC)c1OC [TRIMETHOPRIM]	32 (≈ 110 µM)	>95	8 (≈ 27.6 µM)	>95	8 (≈ 27.6 µM)	>95	
GENTAMICIN	4		128		4		
CCOC(=O)C1=C(c2ccccc2)NC(N)=NC1c1ccccc1C (configuration not stated)	64 (≈ 191 µM)	>95	64 (≈ 191 µM)	>95	64 (≈ 191 µM)	>95	
CCOC(=O)C1=C(c2ccccc2)NC(N)=NC1c1ccccc1 (configuration not stated)							> 64
CCOC(=O)C1=C(c2ccccc2)NC(N)=NC1c1cccc(C)c1 (configuration not stated)	64 (≈ 191 µM)	>95	64 (≈ 191 µM)	>95	64 (≈ 191 µM)	>95	
CCOC(=O)C1=C(c2ccccc2)NC(N)=NC1c1cc(Cl)cc(Cl)c1 (configuration not stated)		>95		>95		>95	> 64
